Test results as given in US20010053796A1, “Delta-aminolevulinic acid for prevention and treatment of infection microorganisms and parasite” (priority 2000, published 2001).

Columns and labels:
[1] = tested on: Staphylococcus sp.; test: Prevention effect for artificial infection (abdominal injection of bacteria); assay type: in vivo, Bastardhalibut; conditions: for Mortality during Cultivation: dead of 20 fish
Method: (§1) The water temperature was maintained at 20° C. (±2° C. ) throughout the experiment. […]
Bastardhalibut and Sebastes schlegeli were infected by Staphylococcus sp. by abdominal injection with the same method of fish breeding δ-aminolevulinic acid treatment and artificial infection carried out in Experiment 1 and 2. Each experimental fish was moved to fish tanks for monitoring and monitored for mortality according to infection for 2 weeks.

[2] = tested on: Streptococcus sp.; test: as above; assay type: in vivo, Sebastes schlegeli; conditions: for Mortality during Cultivation: dead of 20 fish
Method: as §1
Bastardhalibut and Sebastes schlegeli were infected by Streptococcus sp. by abdominal injection with the same method of fish breeding, δ-aminolevulinic acid treatment and artificial infection carried out in Experiment 1 and 2. Each experimental fish was moved to fish tanks for monitoring and monitored for mortality according to infection for 2 weeks. […] The treated group, with δ-aminolevulinic acid by tank administration method and oral administration method, has shown viability of higher than 65%.

[3] = tested on: Scutica; test: Prevention effect for Scutica artificial infection of fish body in vivo; conditions: for Mortality during Cultivation: fish number 20
Method: The water temperature was maintained at 20° C. (±2° C.) throughout the experiment.

[4] = tested on: Edwardsiella tarda; test: Prevention effect for artificial infection (abdominal injection of bacteria); assay type: in vivo, Bastardhalibut; conditions: for Mortality during Cultivation: dead of 20 fish
Method: The water temperature was maintained at 20° C. (±2° C. ) throughout the experiment.
As the same method of above Experiment 1, fishes of both control group and experiment group were prepared and artificially infected by direct abdominal injection of Edwardsiella tarda 10^5 CFU per 1 fish. Each experimental fish was moved to fish tanks for monitoring and monitored for mortality according to infection for 2 weeks and viability after 2 weeks.

[5] = Administration to fish tanks, 0.01 ppm, Bastardhalibut
[6] = Administration to fish tanks, 0.01 ppm, Sebastes schlegeli
[7] = Administration to fish tanks, 0.1 pm, Bastardhalibut
[8] = Administration to fish tanks, 0.1 pm, Sebastes schlegeli
[9] = Administration to fish tanks, 1.0 ppm, Bastardhalibut
[10] = Administration to fish tanks, 1.0 ppm, Sebastes schlegeli
[11] = Administration to fish tanks, 5.0 ppm, Bastardhalibut
[12] = Administration to fish tanks, 5.0 ppm, Sebastes schlegeli
[13] = Administration to fish tanks, 10 ppm, Bastardhalibut
[14] = Administration to fish tanks, 10 ppm, Sebastes schlegeli
[15] = Administration to fish tanks, 50 ppm, Bastardhalibut
[16] = Administration to fish tanks, 50 ppm, Sebastes schlegeli
[17] = Oral Adminstration, 0.1 ppm, Bastardhalibut
[18] = Oral Adminstration, 0.1 ppm, Sebastes schlegeli
[19] = Oral Adminstration, 1.0 ppm, Bastardhalibut
[20] = Oral Adminstration, 1.0 ppm, Sebastes schlegeli
[21] = Oral Adminstration, 5 ppm, Bastardhalibut
[22] = Oral Adminstration, 5 ppm, Sebastes schlegeli
[23] = Oral Adminstration, 10 ppm, Bastardhalibut
[24] = Oral Adminstration, 10 ppm, Sebastes schlegeli
[25] = Oral Adminstration, 50 ppm, Bastardhalibut
[26] = Oral Adminstration, 50 ppm, Sebastes schlegeli
[27] = Oral Adminstration, 100 ppm, Bastardhalibut
[28] = Oral Adminstration, 100 ppm, Sebastes schlegeli

NCC(=O)CCC(=O)O [δ-aminolevulinic acid]
Viability ([1]; orally, 0.1 ppm in feed): 55% | Mortality during Cultivation ([1]; orally, 0.1 ppm in feed): 9 | Viability ([1]; orally, 1.0 ppm in feed): 65% | Mortality during Cultivation ([1]; orally, 1.0 ppm in feed): 7 | Viability ([1]; orally, 10 ppm in feed): 95% | Mortality during Cultivation ([1]; orally, 10 ppm in feed): 1 | Viability ([1]; orally, 100 ppm in feed): 90% | Mortality during Cultivation ([1]; orally, 100 ppm in feed): 2 | Viability ([1]; to fish tanks, 0.01 ppm): 55% | Mortality during Cultivation ([1]; to fish tanks, 0.01 ppm): 9 | Viability ([1]; to fish tanks, 0.1 ppm): 75% | Mortality during Cultivation ([1]; to fish tanks, 0.1 ppm): 5 | Viability ([1]; to fish tanks, 1.0 ppm): 90% | Mortality during Cultivation ([1]; to fish tanks, 1.0 ppm): 2 | Viability ([1]; to fish tanks, 10 ppm): 95% | Mortality during Cultivation ([1]; to fish tanks, 10 ppm): 1 | Viability ([2]; orally, 0.1 ppm in feed): 70% | Mortality during Cultivation ([2]; orally, 0.1 ppm in feed): 6 | Viability ([2]; orally, 1.0 ppm in feed): 70% | Mortality during Cultivation ([2]; orally, 1.0 ppm in feed): 6 | Viability ([2]; orally, 10 ppm in feed): 85% | Mortality during Cultivation ([2]; orally, 10 ppm in feed): 3 | Viability ([2]; orally, 100 ppm in feed): 90% | Mortality during Cultivation ([2]; orally, 100 ppm in feed): 2 | Viability ([2]; to fish tanks, 0.01 ppm): 60% | Mortality during Cultivation ([2]; to fish tanks, 0.01 ppm): 8 | Viability ([2]; to fish tanks, 0.1 ppm): 65% | Mortality during Cultivation ([2]; to fish tanks, 0.1 ppm): 7 | Viability ([2]; to fish tanks, 1.0 ppm): 85% | Mortality during Cultivation ([2]; to fish tanks, 1.0 ppm): 3 | Viability ([2]; to fish tanks, 10 ppm): 80% | Mortality during Cultivation ([2]; to fish tanks, 10 ppm): 4 | Viablity (%) [3, 5]: 60% | Mortality during Cultivation [3, 5]: 8 | Viablity (%) [3, 6]: 60% | Mortality during Cultivation [3, 6]: 8 | Viablity (%) [3, 7]: 75% | Mortality during Cultivation [3, 7]: 7 | Viablity (%) [3, 8]: 60% | Mortality during Cultivation [3, 8]: 8 | Viablity (%) [3, 9]: 75% | Mortality during Cultivation [3, 9]: 5 | Viablity (%) [3, 10]: 70% | Mortality during Cultivation [3, 10]: 6 | Viablity (%) [3, 11]: 85% | Mortality during Cultivation [3, 11]: 3 | Viablity (%) [3, 12]: 85% | Mortality during Cultivation [3, 12]: 3 | Viablity (%) [3, 13]: 85% | Mortality during Cultivation [3, 13]: 3 | Viablity (%) [3, 14]: 85% | Mortality during Cultivation [3, 14]: 3 | Viablity (%) [3, 15]: 80% | Mortality during Cultivation [3, 15]: 4 | Viablity (%) [3, 16]: 80% | Mortality during Cultivation [3, 16]: 4 | Viablity (%) [3, 17]: 70% | Mortality during Cultivation [3, 17]: 6 | Viablity (%) [3, 18]: 65% | Mortality during Cultivation [3, 18]: 7 | Viablity (%) [3, 19]: 70% | Mortality during Cultivation [3, 19]: 6 | Viablity (%) [3, 20]: 75% | Mortality during Cultivation [3, 20]: 5 | Viablity (%) [3, 21]: 85% | Mortality during Cultivation [3, 21]: 3 | Viablity (%) [3, 22]: 85% | Mortality during Cultivation [3, 22]: 3 | Viablity (%) [3, 23]: 95% | Mortality during Cultivation [3, 23]: 1 | Viablity (%) [3, 24]: 95% | Mortality during Cultivation [3, 24]: 1 | Viablity (%) [3, 25]: 95% | Mortality during Cultivation [3, 25]: 1 | Viablity (%) [3, 26]: 95% | Mortality during Cultivation [3, 26]: 1 | Viablity (%) [3, 27]: 90% | Mortality during Cultivation [3, 27]: 2 | Viablity (%) [3, 28]: 95% | Mortality during Cultivation [3, 28]: 1 | Viability ([4]; orally, 0.01 ppm in feed): 75% | Mortality during Cultivation ([4]; orally, 0.01 ppm in feed): 5 | Viability ([4]; orally, 1.0 ppm in feed): 70% | Mortality during Cultivation ([4]; orally, 1.0 ppm in feed): 6 | Viability ([4]; orally, 10 ppm in feed): 85% | Mortality during Cultivation ([4]; orally, 10 ppm in feed): 3 | Viability ([4]; orally, 100 ppm in feed): 95% | Mortality during Cultivation ([4]; orally, 100 ppm in feed): 1 | Viability ([4]; to fish tanks, 0.01 ppm): 65% | Mortality during Cultivation ([4]; to fish tanks, 0.01 ppm): 7 | Viability ([4]; to fish tanks, 0.1 ppm): 75% | Mortality during Cultivation ([4]; to fish tanks, 0.1 ppm): 5 | Viability ([4]; to fish tanks, 1.0 ppm): 85% | Mortality during Cultivation ([4]; to fish tanks, 1.0 ppm): 3 | Viability ([4]; to fish tanks, 10 ppm): 90% | Mortality during Cultivation ([4]; to fish tanks, 10 ppm): 2
